Assay [1] relates to 293T cells overexpressing EML4-ALK G1202R. Description: Proliferation inhibition (IC50) in 293T cells overexpressing EML4-ALK G1202R. It counts as cell-based. The settings on record: Homo sapiens, HEK-293T; WST reagent, 72 hours; read-out: IC50 (half inhibitory concentration) in 293T cells overexpressing EML4-ALK G1202R. As for the experimental part:
(§1) The IC50 of the compound of the present disclosure was determined using Promega's Cell Titer Blue, Cell Titer GLO or commercially available WST reagents. The specific steps were as follows: the cells were seeded in a 96-well plate containing 100 microliters of RPMI medium containing serum at a number of 2000 cells/well. On the second day, the original drug and the compound of the present disclosure were serially diluted and added to the cells. After 72 hours of treatment with the compound of the present disclosure, the cell activity detection reagent was added to the culture medium for cell activity determination according to the instructions. The negative control was DMSO, and the positive control was the original drug, and the cells were treated in the same manner as the compound of the present disclosure. The growth inhibition of the compounds of the present disclosure on cells was plotted by Prism Graphpad software and the IC50 of the compounds of the present disclosure was counted from it.

Another assay addresses T1, ALK protein (Homo sapiens, UniProt Q9UM73).
T1 construct: We studied the total ALK protein in the anaplastic large cell lymphoma cell line SR; host or cells: SR cells (human anaplastic large cell lymphoma); the other entry of the earlier key: NPM1 (P06748, Nucleophosmin)
Nature of the assay: Western blot of ALK protein degradation in SR cells. It is filed as cell-based. Conditions: for degradation effect on ALK protein: concentrations up to 500 nM. As for the experimental part:
(§2) The ALK gene rearrangement positive cell line used was SR cells (NPM-ALK, human anaplastic large cell lymphoma cells). MDA-MB231 was a triple-negative breast cancer cell. Both SR cells and MDA-MB231 cells were purchased from ATCC. The 293T cells overexpressing EML4-ALK G1202R were the cells constructed and verified for correct expression by this laboratory.
Tumor cells were seeded in a 24-well plate containing 1 ml of RPMI1640 medium at 1.5-3×10^5 cells/well. The next day, the cells were treated with different concentrations of drugs. After 16 hours, the supernatant was removed and the cells were washed with PBS. The cells were placed on ice and the cells were treated with RIPA protein lysate containing Halt protease and phosphatase inhibitors. The lysate was centrifuged at 10000RPM at 4° C. for 10 minutes, and the supernatant was collected. The same amount of protein was added to the 4×SDS sample solution, denatured at 95° C. for 5 minutes and freezen to −20° C., or protein electrophoresis was directly performed. GenScript, a 4-20% gradient protein precast gel was used as the electrophoresis gel. The electrophoresis tank and related components were purchased from Bio-rad, and the electrophoresis conditions were equal pressure 120 v for 2 hours. PVDF membrane was used for the transfer membrane, and the transfer membrane system was placed on ice with an equal current of 400 mA for one hour. After transferring the membrane, it was sealed with TBST+5% milk powder for half an hour. For the specific steps of immunoblotting, refer to the antibody instructions of Cell Signaling Technology.
DC50 (the drug concentration corresponding to protein degradation to 50%) calculation: according to the gray value of the Western blotting band after the drug is processed, the relationship curve between the drug concentration and the gray value is fitted by Prism GraphPad software to calculate the drug concentration range corresponding half of the gray value.
The cells with different concentrations (0, 10, 50, 100, 500 nM) of Brigatinib were first treated in SR cells for 16 hours. Western blotting was used on cell lysate to detect the effect of Brigatinib on the content of ALK protein (FIG. 2).

A further assay concerns lung cancer patients. The settings on record: cited from earlier work.
Assay [2] concerns triple-negative breast cancer MDA-MB-231 cell line. Nature of the assay: Proliferation inhibition (IC50) in MDA-MB-231 cell line. It is filed as cell-based. The settings on record: Homo sapiens, WST reagent, 72 hours, read-out: IC50 (half inhibitory concentration) in MDA-MB-231 cell line. As for the experimental part:
as §2, §1

The subject of assay [3] is SR cells (NPM-ALK, human anaplastic large cell lymphoma cells). Description: Proliferation inhibition (IC50) in SR cells, CCK8 (WST) reagent. It is filed as cell-based. The settings on record: 72 h. As for the experimental part: The ALK gene rearrangement positive cell line used was SR cells (NPM-ALK, human anaplastic large cell lymphoma cells). MDA-MB231 was a triple-negative breast cancer cell. Both SR cells and MDA-MB231 cells were purchased from ATCC.
The tumor cell line used was daily cultured in a 37° C. incubator containing 5% CO2. The medium was RPMI1640 supplemented with 10% FCS and Penicillin-Streptomycin.
as §1
We conducted dose-dependent experiments on the designed and synthesized compounds of the present disclosure in SR cells. […] The cells were treated with different concentrations of compounds (starting at 10 μM, 3 times dilution factor, 10 concentrations). After 72 hours, the cells were detected using CCK8 reagent (WST).

Where [4] appears, read: SR cells, WST reagent, 72 hours, read-out: IC50 (half inhibitory concentration), Brigatinib series in lymphoma cell lines.
[5] abbreviates: 16 hours, concentration range at half of the gray value, read-out: DC50 (half degradation concentration), Brigatinib series in lymphoma cell lines.
Where [6] appears, read: read-out: DC50 (half degradation concentration), Alectinib series in lymphoma cell lines, 16 hours, concentration range at half of the gray value.
[7] abbreviates: read-out: IC50 (half inhibitory concentration), Alectinib series in lymphoma cell lines, SR cells, WST reagent, 72 hours.

SMILES strings stand for the structures. Read-outs that look alike come from different tables or passages of the source.

T1 sequence (Q9UM73 with tags, fused parts or gaps): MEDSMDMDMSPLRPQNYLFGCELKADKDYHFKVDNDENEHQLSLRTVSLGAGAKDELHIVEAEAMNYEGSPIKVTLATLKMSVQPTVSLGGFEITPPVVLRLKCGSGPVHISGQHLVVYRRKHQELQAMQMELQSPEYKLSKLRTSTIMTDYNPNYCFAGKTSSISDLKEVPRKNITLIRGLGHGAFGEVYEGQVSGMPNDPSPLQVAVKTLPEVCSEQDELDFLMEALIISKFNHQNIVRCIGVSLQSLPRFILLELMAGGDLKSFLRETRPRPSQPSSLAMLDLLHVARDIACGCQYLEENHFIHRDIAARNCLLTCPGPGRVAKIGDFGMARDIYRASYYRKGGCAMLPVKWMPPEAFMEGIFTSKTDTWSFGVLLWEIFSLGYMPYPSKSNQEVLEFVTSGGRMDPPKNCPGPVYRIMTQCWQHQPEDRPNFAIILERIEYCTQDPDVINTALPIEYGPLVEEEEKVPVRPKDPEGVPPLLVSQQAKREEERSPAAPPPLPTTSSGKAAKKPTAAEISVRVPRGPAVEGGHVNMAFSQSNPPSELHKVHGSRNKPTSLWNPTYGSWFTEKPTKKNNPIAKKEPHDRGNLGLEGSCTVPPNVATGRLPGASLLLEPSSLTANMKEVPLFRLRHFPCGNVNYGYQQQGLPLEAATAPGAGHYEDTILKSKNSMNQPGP

`COc1cc(N2CCC(N3CCN(C)CC3)CC2)ccc1Nc1ncc(Cl)c(Nc2ccccc2P(C)(C)=O)n1` [Brigatinib, reference compound]: the IC50 in assay [1] was 473 ± 129 nM; in assay [2] it was 381 ± 41 nM; in assay [3] (setting [4]) it was 6.9 nM. In addition, at ALK protein (16 hours), the “degradation effect on ALK protein” value is on record as “no degradation effect”. Besides, the control rate in the assay on lung cancer patients is listed as 86%. For the same molecule, the effective rate in the assay with lung cancer patients was 55%.
Consider `COc1cc(N2CCC(N3CCN(CCCCCCCC#Cc4cccc5c4CN(C4CCC(=O)NC4=O)C5=O)CC3)CC2)ccc1Nc1ncc(Cl)c(Nc2ccccc2P(C)(C)=O)n1` (stereo not shown) [SIAIS293018, 3-(4-(9-(4-(1-(4-((5-chloro-4-((2-(dimethylphosphono)phenyl)amino)pyrimidin-2-yl)amino)-3-methoxyphenyl)piperidin-4-yl)piperazin-1-yl)non-1-yn-1-yl)-1-oxoisoindolin-2-yl)piperidine-2,6-dione], for which the “concentration from which a degradation effect on ALK protein is shown” value (shortened to “concentration”) on ALK protein was 5 nM. Besides, the DC50 on ALK protein (setting [5]) is 0.05 to 0.5 nM. Moreover, the IC50 in assay [3] (setting [4]) is 2 nM.
`COc1cc(N2CCC(N3CCNCC3)CC2)ccc1Nc1ncc(Cl)c(Nc2ccccc2P(C)(C)=O)n1` [Brigatinib derivative C (SIAIS164005), (2-((5-Chloro-2-((2-methoxy-4-(4-(piperazin-1-yl)piperidin-1-yl)phenyl)amino)pyrimidin-4-yl)amino)phenyl) dimethyl phosphine oxide, reference compound]: the “degradation effect on ALK protein” value at ALK protein (16 hours) is listed as “no degradation effect”. Besides, the IC50 in assay [3] (setting [4]) came out at 11.1 nM.
For `CCc1cc2c(cc1N1CCC(N3CCN(C(=O)COc4cccc5c4C(=O)N(C4CCC(=O)NC4=O)C5=O)CC3)CC1)C(C)(C)c1[nH]c3cc(C#N)ccc3c1C2=O` (stereo not shown) [SIAIS293010, 8-(4-(4-(2-((2-(2,6-dioxopiperidin-3-yl)-1,3-dioxoisoindolin-4-yl)oxy)acetyl)piperazin-1-yl)piperidin-1-yl)-9-ethyl-6,6-dimethyl-11-oxo-6,11-dihydro-5H-benzo[b]carbazole-3-carbonitrile], the “concentration” value at ALK protein worked out at 0.5 nM. Moreover, at ALK protein (setting [6]), the DC50 fell in the range of 0.05 to 0.5 nM. In addition, the IC50 in assay [3] (setting [7]) turned out to be 2 nM.
For the molecule `COc1cc(N2CCC(N3CCN(CCCC#Cc4cccc5c4CN(C4CCC(=O)NC4=O)C5=O)CC3)CC2)ccc1Nc1ncc(Cl)c(Nc2ccccc2P(C)(C)=O)n1` (stereo not shown) [SIAIS262039, 3-(4-(5-(4-(1-(4-((5-chloro-4-((2-(dimethylphosphono)phenyl)amino)pyrimidin-2-yl)amino)-3-methoxyphenyl)piperidin-4-yl)piperazin-1-yl)pent-1-yn-1-yl)-1-oxoisoindolin-2-yl)piperidine-2,6-dione], on ALK protein, the “concentration” value is on record as “less than 0.005 nM”. In addition, the IC50 in assay [2] was 22.5 ± 2.26 nM; in assay [3] (setting [4]), roughly 1 nM.
With `COc1cc(N2CCC(N3CCN(CCCCCCC#Cc4cccc5c4CN(C4CCC(=O)NC4=O)C5=O)CC3)CC2)ccc1Nc1ncc(Cl)c(Nc2ccccc2P(C)(C)=O)n1` (stereo not shown) [SIAIS293017, 3-(4-(8-(4-(1-(4-((5-chloro-4-((2-(dimethylphosphono)phenyl)amino)pyrimidin-2-yl)amino)-3-methoxyphenyl)piperidin-4-yl)piperazin-1-yl)oct-1-yn-1-yl)-1-oxoisoindolin-2-yl)piperidine-2,6-dione], the DC50 at ALK protein (setting [5]) fell in the range of 0.5 to 5 nM. The IC50 in assay [3] (setting [4]) worked out at 1.5 nM.
Turning to `CCc1cc2c(cc1N1CCC(N3CCN(CCCC#Cc4cccc5c4CN(C4CCC(=O)NC4=O)C5=O)CC3)CC1)C(C)(C)c1[nH]c3cc(C#N)ccc3c1C2=O` (stereo not shown) [SIAIS293001, 8-(4-(4-(5-(2-(2,6-dioxopiperidin-3-yl)-1-oxoisoindolin-4-yl)pent-4-yn-1-yl)piperazin-1-yl)piperidin-1-yl)-9-ethyl-6,6-dimethyl-11-oxo-6,11-dihydro-5H-benzo[b]carbazole-3-carbonitrile], at ALK protein (setting [6]), the DC50 lay within 0.05 to 0.5 nM. For the same molecule, the IC50 in assay [3] (setting [7]) came to 2.7 nM.
With `COc1cc(N2CCC(N3CCN(Cc4ccc(CSc5cccc6c5CN(C5CCC(=O)NC5=O)C6=O)cc4)CC3)CC2)ccc1Nc1ncc(Cl)c(Nc2ccccc2P(C)(C)=O)n1` (stereo not shown) [SIAIS293189, 3-(4-((4-((4-(1-(4-((5-chloro-4-((2-(dimethylphosphono)phenyl)amino)pyrimidin-2-yl)amino)-3-methoxyphenyl)piperidin-4-yl)piperazin-1-yl)methyl)benzyl)thio)-1-oxoisoindolin-2-yl)piperidine-2,6-dione], the IC50 amounted to 99.5 ± 8.62 nM in assay [1] and 0.1 ± 0.02 nM in assay [3] (setting [4]). Besides, the DC50 on ALK protein (setting [5]) was in the range of 0.05 to 0.5 nM.
Consider `COc1cc(N2CCC(N3CCN(CCCCc4cccc5c4CN(C4CCC(=O)NC4=O)C5=O)CC3)CC2)ccc1Nc1ncc(Cl)c(Nc2ccccc2P(C)(C)=O)n1` (stereo not shown) [SIAIS352059, 3-(4-(4-(4-(1-(4-((5-chloro-4-((2-(dimethylphosphono)phenyl)amino)pyrimidin-2-yl)amino)-3-methoxyphenyl)piperidin-4-yl)piperazin-1-yl)butyl)-1-oxoisoindolin-2-yl)piperidine-2,6-dione], for which the IC50 in assay [2] worked out at 75 ± 58 nM; in assay [3] (setting [4]), 1.1 ± 0.3 nM.
For `COc1cc(N2CCC(N3CCN(CCCCCc4cccc5c4CN(C4CCC(=O)NC4=O)C5=O)CC3)CC2)ccc1Nc1ncc(Cl)c(Nc2ccccc2P(C)(C)=O)n1` (stereo not shown) [SIAIS352008, 3-(4-(5-(4-(1-(4-((5-chloro-4-((2-(dimethylphosphono)phenyl)amino)pyrimidin-2-yl)amino)-3-methoxyphenyl)piperidin-4-yl)piperazin-1-yl)pentyl)-1-oxoisoindolin-2-yl)piperidine-2,6-dione], at ALK protein (setting [5]), the DC50 lay within 0.05 to 0.5 nM. The values for the IC50 in assay [2] and in assay [3] (setting [4]) were 4.5 ± 0.5 nM and 2.1 ± 1.2 nM, respectively.
Turning to `COc1cc(N2CCC(NCCCC#Cc3cccc4c3CN(C3CCC(=O)NC3=O)C4=O)CC2)ccc1Nc1ncc(Cl)c(Nc2ccccc2P(C)(C)=O)n1` (stereo not shown) [SIAIS293093, 3-(4-(5-((1-(4-((5-chloro-4-((2-(dimethylphosphono)phenyl)amino)pyrimidin-2-yl)amino)-3-methoxyphenyl)piperidin-4-yl)amino)pent-1-yn-1-yl)-1-oxoisoindolin-2-yl)piperidine-2,6-dione], the IC50 in assay [2] is 191 ± 106 nM; in assay [3] (setting [4]) it was 1.3 nM.
As for `COc1cc(N2CCC(N3CCN(CCSc4cccc5c4CN(C4CCC(=O)NC4=O)C5=O)CC3)CC2)ccc1Nc1ncc(Cl)c(Nc2ccccc2P(C)(C)=O)n1` (stereo not shown) [SIAIS352011, 3-(4-((2-(4-(1-(4-((5-chloro-4-((2-(dimethylphosphono)phenyl)amino)pyrimidin-2-yl)amino)-3-methoxyphenyl)piperidin-4-yl)piperazin-1-yl)ethyl)thio)-1-oxoisoindolin-2-yl)piperidine-2,6-dione], the DC50 on ALK protein (setting [5]) lay within 0.5 to 5 nM. Besides, the IC50 is 4.9 ± 1.04 nM in assay [2] and 1.2 ± 0.3 nM in assay [3] (setting [4]).

The record behind these values is patent US12390532B2, “ALK protein regulator and anti-tumor application thereof” (SHANGHAITECH UNIVERSITY, priority 2019, dated 2025).
